# What was measured:
# Format in all cases: physicochemical
# [1] = Distribution coefficient, log D of the compound by HPLC method; details: octanol/water
# [2] = Solubility by CLND method
# [3] = Lipophilicity, log P of the compound; details: octanol/water
Compound,logD [1],solubility kinetic [2] [µg/mL],logP [3]
Nc1ccccc1NC(=O)c1ccc(CNC2=NC(c3ccccc3)(c3ccccc3)CO2)cc1,5.29,7,5.59
Nc1ccccc1NC(=O)c1ccc(CNC2=NC(c3ccc(C(F)(F)F)cc3)CO2)cc1 (stereo not drawn),4.54,8,4.72
Nc1ccccc1NC(=O)c1ccc(CNC2=N[C@@H](c3ccccc3)CO2)cc1,3.1,–,3.74
Nc1ccccc1NC(=O)c1ccc(CNC2=NC(c3ccc(F)cc3)CO2)cc1 (stereo not drawn),–,147,3.97
Nc1ccccc1NC(=O)c1ccc(CNC2=N[C@@H](Cc3c[nH]cn3)CO2)cc1,0.9,≥ 142,0.95
Nc1ccccc1NC(=O)c1ccc(CNC2=N[C@@H](c3ccccc3)[C@H](c3ccccc3)O2)cc1,5.01,6,5.41
Nc1ccccc1NC(=O)c1ccc(CNC2=NC[C@H](c3ccccc3)O2)cc1,2.99,77,3.84
Nc1ccccc1NC(=O)c1ccc(CNC2=NC[C@@H](c3ccccc3)O2)cc1,2.79,98,3.58
Nc1ccccc1NC(=O)c1ccc(CNC2=N[C@H](c3ccccc3)CO2)cc1,3.09,≥ 151,3.76
Nc1ccccc1NC(=O)c1ccc(CNc2nccc(-c3cccnc3)n2)cc1 [MOCETINOSTAT],2.96,107,2.96
Nc1ccccc1NC(=O)c1ccc(CNC2=N[C@@H](c3cccnc3)CO2)cc1,1.71,≥ 124,1.78
Nc1ccccc1NC(=O)c1ccc(CNC2=N[C@@H](Cc3ccccc3)CO2)cc1,2.86,≥ 148,4.15
Nc1ccccc1NC(=O)c1ccc(CNC2=N[C@H](c3ccccc3)[C@H](c3ccccc3)O2)cc1,4.54,73,5.01
Nc1ccccc1NC(=O)c1ccc(CSC2=N[C@@H](Cc3ccccc3)CO2)cc1,5.41,31,5.67
Nc1ccccc1NC(=O)c1ccc(CNC2=NC(c3cccc(F)c3)CO2)cc1 (stereo not drawn),3.42,≥ 131,3.84
Nc1ccccc1NC(=O)c1ccc(CSC2=N[C@@H](c3cccnc3)CO2)cc1,3.19,108,3.32
Nc1ccccc1NC(=O)c1ccc(CSC2=N[C@@H](c3ccccc3)CN2)cc1,3.49,116,4.31
Nc1ccccc1NC(=O)c1ccc(CNC2=N[C@@H](c3ccccc3)CN2)cc1,1.92,≥ 70,3.46
Nc1ccccc1NC(=O)c1ccc(CNC2=N[C@H](Cc3c[nH]cn3)CO2)cc1,0.89,≥ 158,0.93
Nc1ccccc1NC(=O)c1ccc(CNC2=N[C@@H](c3ccc(O)cc3)CO2)cc1,1.74,≥ 130,2.13

# — ChEMBL document CHEMBL3603817, “Potent and Selective Inhibitors of Histone Deacetylase-3 Containing Chiral Oxazoline Capping Groups and a N-(2-Aminophenyl)-benzamide Binding Unit” (J Med Chem, 2015)
